For orientation: IC50 means the concentration needed to halve the response being measured. A higher IC50 goes with lower potency.

Each structure is given as a SMILES string. Structures can show the parent of a compound that is named as a salt.

Here are results for two molecules from patent US6872718B1, “Tricyclic dihydrobenzofuran derivatives, process for the preparation thereof and agents” (Takeda Chemical Industries, Ltd., priority 1999, dated 2005).

The test system of this assay is lipoperoxide produced in brain homogenate. The experiment in a line: Inhibitory effect on lipid peroxidation in rat cerebral cortical homogenates (thiobarbituric acid method). Type of assay: biochemical. The following applies: rat cerebral cortical homogenate supernatant, 37° C. for 30 minutes, absorbance at 532 nm. As for the experimental part: Inhibitory Effect on Lipid Peroxidation in Rat Cerebral Cortical Homogenates and Orally Treated Mice
Quantitative determination of lipoperoxide produced in brain homogenate was performed according to the method of Stocks et al. (Clin. Sci. Mol. Med. 47-215(1974)). As animals, brains of Jcl. Wistar male rats, 10-13 weeks age, were used. Rat cerebral cortices were obtained after decapitation, homogenized in an ice-cooled phosphate saline buffer (50 mM Ph 7.4) (Nichion Microhomogenizer, S-310E), centrifuged at 10,000 g for 10 minutes (Hitachi CF15D type, RT15A6 Anglerotor), and the supernatant was used in a test. This supernatant was diluted 3-fold with the same buffer. To this 1 mL were added […] of test drugs dissolved in dimethyl sulfoxide (DMSO) to the final concentration of 0.0125, 0.025, 0.05, 0.10, 0.20, 0.40, 0.80 and 1.60 μM, respectively, which was incubated at 37° C. for 30 minutes. The reaction was stopped by addition of 200 μL of 35% perchloric acid, and centrifuged at 13,000 g for 10 minutes. To 1 mL of this supernatant was added 0.5 mL of 2-thiobarbituric acid (500 mg/100 mL) dissolved in 50% acetic acid, heated to boil at 95° C. for 15 minutes, which was determined by the absorbance at 532 nm. […]

Molecule `Cc1c2c(c(C)c3c1NCC3)OC(C)(CN1CCC(c3ccccc3)CC1)C2` (centres unmarked) [Example 11, 3,5,6,7-Tetrahydro-2,4,8-trimethyl-2-[(4-phenylpiperidino)methyl]-2H-furo[2,3-f]indole] came in with an IC50 of 67 nM. This lies in the double-digit nanomolar range.

With `Cc1c2c(c(C)c3c1NCC3)OC(C)(CN1CCC(NC(c3ccccc3)c3ccccc3)CC1)C2` (centres unmarked) [Example 18, N-(Diphenylmethyl)-1-[(3,5,6,7-tetrahydro-2,4,8-trimethyl-2H-furo[2,3-f]indol-2-yl)methyl]-4-piperidinamine trihydrochloride], the 50% inhibitory concentration (IC50) is 360 nM. Against the preceding molecule, the IC50 is about 5.4-fold higher.
